How the values were obtained:
Test in all cases: relative viability (nuclei count vs DMSO), 5 days (fraction); higher = more cells survive
NCI-H661 = tested on: NCI-H661
In short: (§1)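 Cells from lung cancer lines were seeded into 1536-well plates and, one day later, dosed by pin tool. Treatments were either a single drug or a fixed dose of an anchor drug with five library-drug doses (not always all listed) in √10 steps. After 5 days, nuclei were stained in a one-step fixation (final 0.05% Triton X-100, 1% formaldehyde, 1 ug/ml Hoechst) and counted on 4× images, and relative viability is the treated-to-vehicle nuclei ratio, as the median of duplicate plates.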

NCI-H1355 = tested on: NCI-H1355
In short: as §1

LOU-NH91 = tested on: LOU-NH91
In short: as §1

HCC-827 = tested on: HCC-827
In short: as §1

NCI-H2009 = tested on: NCI-H2009
In short: as §1

NCI-H1734 = tested on: NCI-H1734
In short: as §1

SK-MES-1 = tested on: SK-MES-1
In short: as §1

SK-LU-1 = tested on: SK-LU-1
In short: as §1

NCI-H2342 = tested on: NCI-H2342
In short: as §1

EKVX = tested on: EKVX
In short: as §1

NCI-H647 = tested on: NCI-H647
In short: as §1

BEN = tested on: BEN
In short: as §1

NCI-H1437 = tested on: NCI-H1437
In short: as §1

NCI-H2405 = tested on: NCI-H2405
In short: as §1

NCI-H2170 = tested on: NCI-H2170
In short: as §1

NCI-H1395 = tested on: NCI-H1395
In short: as §1

NCI-H1993 = tested on: NCI-H1993
In short: as §1

NCI-H522 = tested on: NCI-H522
In short: as §1

NCI-H1792 = tested on: NCI-H1792
In short: as §1

HARA = tested on: HARA
In short: as §1

HCC-366 = tested on: HCC-366
In short: as §1

NCI-H2087 = tested on: NCI-H2087
In short: as §1

O=c1cc(-c2cccc3c2Sc2ccccc2S3)oc(N2CCOCC2)c1 + Cc1nc(Nc2ncc(C(=O)Nc3c(C)cccc3Cl)s2)cc(N2CCN(CCO)CC2)n1 [Dasatinib] (partner 0.075 µM)
relative viability (NCI-H661; first compound 0.08 µM): 0.779
relative viability (NCI-H661; first compound 0.253 µM): 0.938
relative viability (NCI-H661; first compound 0.8 µM): 0.761
relative viability (NCI-H661; first compound 2.53 µM): 0.729
relative viability (NCI-H661; first compound 8 µM): 0.874
relative viability (NCI-H1355; first compound 0.08 µM): 0.754
relative viability (NCI-H1355; first compound 0.253 µM): 0.619
relative viability (NCI-H1355; first compound 0.8 µM): 0.488
relative viability (NCI-H1355; first compound 2.53 µM): 0.615
relative viability (NCI-H1355; first compound 8 µM): 0.694
relative viability (LOU-NH91; first compound 0.08 µM): 0.589
relative viability (LOU-NH91; first compound 0.253 µM): 0.558
relative viability (LOU-NH91; first compound 0.8 µM): 0.523
relative viability (LOU-NH91; first compound 2.53 µM): 0.519
relative viability (LOU-NH91; first compound 8 µM): 0.559
relative viability (HCC-827; first compound 0.08 µM): 0.285
relative viability (HCC-827; first compound 0.253 µM): 0.297
relative viability (HCC-827; first compound 0.8 µM): 0.37
relative viability (HCC-827; first compound 2.53 µM): 0.276
relative viability (HCC-827; first compound 8 µM): 0.348
relative viability (NCI-H2009; first compound 0.08 µM): 0.298
relative viability (NCI-H2009; first compound 0.253 µM): 0.301
relative viability (NCI-H2009; first compound 0.8 µM): 0.29
relative viability (NCI-H2009; first compound 2.53 µM): 0.235
relative viability (NCI-H2009; first compound 8 µM): 0.254
relative viability (NCI-H1734; first compound 0.08 µM): 0.469
relative viability (NCI-H1734; first compound 0.253 µM): 0.49
relative viability (NCI-H1734; first compound 0.8 µM): 0.503
relative viability (NCI-H1734; first compound 8 µM): 0.513
relative viability (SK-MES-1; first compound 0.08 µM): 0.335
relative viability (SK-MES-1; first compound 0.253 µM): 0.256
relative viability (SK-MES-1; first compound 0.8 µM): 0.312
relative viability (SK-MES-1; first compound 2.53 µM): 0.317
relative viability (SK-MES-1; first compound 8 µM): 0.289
relative viability (SK-LU-1; first compound 0.08 µM): 0.156
relative viability (SK-LU-1; first compound 0.253 µM): 0.17
relative viability (SK-LU-1; first compound 0.8 µM): 0.205
relative viability (SK-LU-1; first compound 2.53 µM): 0.18
relative viability (SK-LU-1; first compound 8 µM): 0.182
relative viability (NCI-H2342; first compound 0.08 µM): 0.312
relative viability (NCI-H2342; first compound 0.253 µM): 0.309
relative viability (NCI-H2342; first compound 0.8 µM): 0.304
relative viability (NCI-H2342; first compound 2.53 µM): 0.262
relative viability (NCI-H2342; first compound 8 µM): 0.336
relative viability (EKVX; first compound 0.08 µM): 0.605
relative viability (EKVX; first compound 0.253 µM): 0.517
relative viability (EKVX; first compound 0.8 µM): 0.315
relative viability (EKVX; first compound 2.53 µM): 0.501
relative viability (EKVX; first compound 8 µM): 0.355
relative viability (NCI-H647; first compound 0.08 µM): 0.128
relative viability (NCI-H647; first compound 0.253 µM): 0.205
relative viability (NCI-H647; first compound 0.8 µM): 0.208
relative viability (NCI-H647; first compound 2.53 µM): 0.123
relative viability (NCI-H647; first compound 8 µM): 0.155
relative viability (BEN; first compound 0.08 µM): 0.284
relative viability (BEN; first compound 0.253 µM): 0.353
relative viability (BEN; first compound 0.8 µM): 0.284
relative viability (BEN; first compound 2.53 µM): 0.318
relative viability (BEN; first compound 8 µM): 0.351
relative viability (NCI-H1437; first compound 0.08 µM): 0.435
relative viability (NCI-H1437; first compound 0.253 µM): 0.488
relative viability (NCI-H1437; first compound 0.8 µM): 0.401
relative viability (NCI-H1437; first compound 2.53 µM): 0.339
relative viability (NCI-H1437; first compound 8 µM): 0.423
relative viability (NCI-H2405; first compound 0.08 µM): 0.183
relative viability (NCI-H2405; first compound 0.253 µM): 0.194
relative viability (NCI-H2405; first compound 0.8 µM): 0.192
relative viability (NCI-H2405; first compound 2.53 µM): 0.179
relative viability (NCI-H2405; first compound 8 µM): 0.209
relative viability (NCI-H2170; first compound 0.08 µM): 0.494
relative viability (NCI-H2170; first compound 0.253 µM): 0.571
relative viability (NCI-H2170; first compound 0.8 µM): 0.611
relative viability (NCI-H2170; first compound 2.53 µM): 0.477
relative viability (NCI-H2170; first compound 8 µM): 0.564
relative viability (NCI-H1395; first compound 0.08 µM): 0.425
relative viability (NCI-H1395; first compound 0.253 µM): 0.366
relative viability (NCI-H1395; first compound 0.8 µM): 0.436
relative viability (NCI-H1395; first compound 2.53 µM): 0.338
relative viability (NCI-H1395; first compound 8 µM): 0.386
relative viability (NCI-H1993; first compound 0.08 µM): 0.519
relative viability (NCI-H1993; first compound 0.253 µM): 0.581
relative viability (NCI-H1993; first compound 0.8 µM): 0.544
relative viability (NCI-H1993; first compound 2.53 µM): 0.525
relative viability (NCI-H1993; first compound 8 µM): 0.56
relative viability (NCI-H522; first compound 0.08 µM): 0.895
relative viability (NCI-H522; first compound 0.253 µM): 0.983
relative viability (NCI-H522; first compound 0.8 µM): 0.872
relative viability (NCI-H522; first compound 2.53 µM): 0.71
relative viability (NCI-H522; first compound 8 µM): 0.781
relative viability (NCI-H1792; first compound 0.08 µM): 0.791
relative viability (NCI-H1792; first compound 0.253 µM): 1.01
relative viability (NCI-H1792; first compound 0.8 µM): 0.617
relative viability (NCI-H1792; first compound 2.53 µM): 0.728
relative viability (NCI-H1792; first compound 8 µM): 1.04
relative viability (HARA; first compound 0.08 µM): 0.294
relative viability (HARA; first compound 0.253 µM): 0.31
relative viability (HARA; first compound 0.8 µM): 0.234
relative viability (HARA; first compound 2.53 µM): 0.241
relative viability (HARA; first compound 8 µM): 0.377
relative viability (HCC-366; first compound 0.08 µM): 0.633
relative viability (HCC-366; first compound 0.253 µM): 0.718
relative viability (HCC-366; first compound 0.8 µM): 0.547
relative viability (HCC-366; first compound 2.53 µM): 0.666
relative viability (HCC-366; first compound 8 µM): 0.767
relative viability (NCI-H2087; first compound 0.08 µM): 0.787
relative viability (NCI-H2087; first compound 0.253 µM): 0.936
relative viability (NCI-H2087; first compound 0.8 µM): 0.943
relative viability (NCI-H2087; first compound 2.53 µM): 0.919
relative viability (NCI-H2087; first compound 8 µM): 0.699

— the supplement of paper PMC10307832
